Reference: ChEMBL document CHEMBL1201862, “PubChem BioAssay data set” (2004)
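Tested at 5 concentrations; 48 h exposure; 96-well plates; endpoints linearly interpolated, else capped at highest concentration. Abbreviation: GI50, concentration required for 50% inhibition of growth.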 Active and inactive are the calls of the source. No stated cut-off is given here; in the data, active = GI50 up to about 1.1 µM and inactive = higher.

Tests used:
Experiment in all cases: DTP human tumour cell line panel, 48 h
[1] = system: CCRF-CEM
[2] = system: SK-MEL-5
[3] = system: HL-60
[4] = system: HCT-15
[5] = system: K562
[6] = system: COLO 205
[7] = system: HCC 2998
[8] = system: ACHN
[9] = system: NCI-H23
[10] = system: 786-0
[11] = system: HOP-92
[12] = system: PC-3
[13] = system: MOLT-4
[14] = system: MCF7
[15] = system: SNB-75
[16] = system: RXF 393
[17] = system: BT-549
[18] = system: HT-29
[19] = system: EKVX

Structure (SMILES) | GI50 [1] | GI50 [2] | GI50 [3] | GI50 [4] [µM] | GI50 [5] | GI50 [6] | GI50 [7] | GI50 [8] | GI50 [9] | GI50 [10] | GI50 [11] | GI50 [12] | GI50 [13] | GI50 [14] | GI50 [15] | GI50 [16] | GI50 [17] | GI50 [18] | GI50 [19]
c1cc2c(cc1NC1=NCCO1)CCCC2 | 2.72 µM (inactive) | 3.05 µM (inactive) | 2.66 µM (inactive) | 3.45 | 2.45 µM (inactive) | 1.84 µM (inactive) | 2.55 µM (inactive) | 7.59 µM (inactive) | 4.09 µM (inactive) | 5.07 µM (inactive) | 2.86 µM (inactive) | 3.01 µM (inactive) | 2.65 µM (inactive) | 0.619 µM (active) | 2.08 µM (inactive) | 2.67 µM (inactive) | 13.7 µM (inactive) | 2.62 µM (inactive) | 8.04 µM (inactive)
Cc1ccc(/N=N/NCCCCN/N=N/c2ccc(C)cc2)cc1 | 1 µM (active) | 23.4 µM (inactive) | 1.75 µM (inactive) | 4.93 | > 100 µM (inactive) | 35.4 µM (inactive) | 13.9 µM (inactive) | – | 9.25 µM (inactive) | – | 25.3 µM (inactive) | 4.22 µM (inactive) | 14.2 µM (inactive) | 78.3 µM (inactive) | > 100 µM (inactive) | > 100 µM (inactive) | > 100 µM (inactive) | > 100 µM (inactive) | > 100 µM (inactive)
CC1(C)CC2=NO[Se]3=C2C(=NO3)C1 | 3.06 µM (inactive) | 1.81 µM (inactive) | 2.22 µM (inactive) | 0.811 | 2.72 µM (inactive) | 2.07 µM (inactive) | 5.19 µM (inactive) | 1.72 µM (inactive) | 2.15 µM (inactive) | 1.94 µM (inactive) | 2.63 µM (inactive) | 0.394 µM (active) | 3.48 µM (inactive) | 3.27 µM (inactive) | 2.68 µM (inactive) | 3.15 µM (inactive) | 1.47 µM (inactive) | 0.929 µM (active) | 2.8 µM (inactive)
COC(=O)CC1C(C)(C)C(=O)C2CC3=C4CC(=O)OC(c5ccoc5)C4(C)CCC3C1(C)C2=O (stereo not given) | > 100 µM (inactive) | > 100 µM (inactive) | 44.4 µM (inactive) | > 100 | > 100 µM (inactive) | > 100 µM (inactive) | > 100 µM (inactive) | > 100 µM (inactive) | > 100 µM (inactive) | > 100 µM (inactive) | > 100 µM (inactive) | > 100 µM (inactive) | > 100 µM (inactive) | > 100 µM (inactive) | > 100 µM (inactive) | > 100 µM (inactive) | > 100 µM (inactive) | > 100 µM (inactive) | > 100 µM (inactive)
COc1ccc2c3c1O[C@H](c1ccc(O)cc1)[C@H]3[N+](C)(C)CC2 | > 100 µM (inactive) | 86.3 µM (inactive) | 34.3 µM (inactive) | > 100 | 34.1 µM (inactive) | 68.4 µM (inactive) | > 100 µM (inactive) | > 100 µM (inactive) | 46.6 µM (inactive) | > 100 µM (inactive) | > 100 µM (inactive) | 75.5 µM (inactive) | > 100 µM (inactive) | > 100 µM (inactive) | > 100 µM (inactive) | > 100 µM (inactive) | > 100 µM (inactive) | > 100 µM (inactive) | > 100 µM (inactive)
CCCCCCCCCCCCCCCCCCNc1ccn(C2OC(CO)C(O)C2O)c(=O)n1 (stereo not given) | 5.37 µM (inactive) | > 100 µM (inactive) | 2.49 µM (inactive) | > 100 | > 73.8 µM (inactive) | 38 µM (inactive) | 50.5 µM (inactive) | > 100 µM (inactive) | > 100 µM (inactive) | > 100 µM (inactive) | > 100 µM (inactive) | 2.45 µM (inactive) | 4.58 µM (inactive) | 57.1 µM (inactive) | 29.9 µM (inactive) | 7.66 µM (inactive) | > 100 µM (inactive) | > 95.5 µM (inactive) | > 100 µM (inactive)
CCN(CC)/C(Cl)=C(Cl)\C(=C1\Nc2ccc(OC)cc21)[N+](=O)[O-] | 20.1 µM (inactive) | 28.6 µM (inactive) | 32.3 µM (inactive) | 52.7 | 31.7 µM (inactive) | 43.4 µM (inactive) | > 100 µM (inactive) | 98.2 µM (inactive) | 56.6 µM (inactive) | 47.9 µM (inactive) | > 100 µM (inactive) | 31.6 µM (inactive) | 23.1 µM (inactive) | 54.8 µM (inactive) | 15.3 µM (inactive) | 15.7 µM (inactive) | 37.1 µM (inactive) | 56.2 µM (inactive) | 30.1 µM (inactive)
C/C=C/C=C/C1=NN(c2cccc(S(=O)(=O)O)c2)C2(C1)C(Cl)C(=O)N2c1nc2ccccc2s1 (stereo not given) | 3.01 µM (inactive) | 12.2 µM (inactive) | 15.6 µM (inactive) | 14.5 | 28.8 µM (inactive) | 18.3 µM (inactive) | 16.9 µM (inactive) | 15.4 µM (inactive) | 15.1 µM (inactive) | 13.8 µM (inactive) | 24.5 µM (inactive) | 13.5 µM (inactive) | 28.6 µM (inactive) | 13.4 µM (inactive) | 12.4 µM (inactive) | 6.3 µM (inactive) | 17.7 µM (inactive) | 17 µM (inactive) | 16.4 µM (inactive)
COc1ccc(S(=O)(=O)n2c3c(c4ccccc42)[C@@H]2[C@@H](CCCN2C(=O)C[S+]([O-])c2ccc(C)cc2)[C@H](Cl)C3)cc1 (stereo not given in full) | > 100 µM (inactive) | > 100 µM (inactive) | 99.8 µM (inactive) | > 100 | > 100 µM (inactive) | > 100 µM (inactive) | > 100 µM (inactive) | – | > 100 µM (inactive) | > 100 µM (inactive) | > 100 µM (inactive) | > 100 µM (inactive) | > 100 µM (inactive) | > 100 µM (inactive) | > 100 µM (inactive) | > 100 µM (inactive) | 5.83 µM (inactive) | > 100 µM (inactive) | > 100 µM (inactive)
O=C(CC(=O)N(C(=O)c1ccccc1)c1ccc(Cl)cc1)N/N=C\c1cc(/N=N/c2ccccc2Cl)ccc1O | 25.1 µM (inactive) | – | 12.7 µM (inactive) | 75.7 | 17.3 µM (inactive) | > 100 µM (inactive) | > 100 µM (inactive) | > 100 µM (inactive) | > 100 µM (inactive) | 38.1 µM (inactive) | 23.5 µM (inactive) | > 100 µM (inactive) | 18.7 µM (inactive) | > 100 µM (inactive) | 12.4 µM (inactive) | 29.8 µM (inactive) | > 100 µM (inactive) | > 100 µM (inactive) | 90.2 µM (inactive)
COC(=O)C1C2OC(C)(C)OC2CN1S(=O)(=O)c1ccc(C)cc1 (stereo not given) | > 100 µM (inactive) | > 100 µM (inactive) | > 100 µM (inactive) | > 100 | > 100 µM (inactive) | > 100 µM (inactive) | > 100 µM (inactive) | > 100 µM (inactive) | > 100 µM (inactive) | > 100 µM (inactive) | > 100 µM (inactive) | > 100 µM (inactive) | > 100 µM (inactive) | > 100 µM (inactive) | 10.9 µM (inactive) | > 100 µM (inactive) | > 100 µM (inactive) | > 100 µM (inactive) | 8.04 µM (inactive)
